Results reported in US6573236B2, “Inhibiting MOG-antibody binding” (The Regents of the University of California, priority 1998, dated 2003).
Ends that are not written are not given here.

Key:
[1] = test system: MOG- and MBP-specific autoantibodies in MS lesions; experiment: Immunogold-labeled peptide staining of human MS CNS tissue; assay type: binding; conditions: acute human MS lesions
Experimental: Immunogold labeling was performed on ultra-thin sections of frozen or fixed tissues. Gold conjugates were prepared of (1) three MOG peptides (amino acids [aa] 1-20, aa 21-40, and aa 41-60 of human MOG (SEQ ID NO:3)) with known encephalitogenic activity in marmosets; (2) one MOG peptide that has been shown not to be encephalitogenic in marmosets (aa 101-120); (3) one human myelin basic protein (MBP) peptide (aa 82-101) that is encephalitogenic in marmosets and immunodominant in humans with the DR2 haplotype; and, as a control, (4) a peptide of mouse serum albumin (MSA; aa 560-574). […] Immunoreactivity was detected on 1-μm epoxy sections of marmoset spinal cord tissue and active MS lesions. […]
(§1) As controls, sections were either pretreated with unlabeled encephalitogenic MOG peptides or MBP to block the reaction, reacted with unlabeled nonencephalitogenic MOG peptide (aa 101-120) before application of the gold conjugates, or treated with gold-labeled irrelevant antigens (histone or MSA) or irrelevant IgG (anti-goat). The specificity of the labeling with the gold conjugates of encephalitogenic MOG peptides was also assessed in western blots where the MOG protein was first reacted with immune marmoset serum. […]

[2] = test system: antigen-specific autoantibody in situ (marmoset EAE lesions); experiment: Immunogold-labeled peptide staining of marmoset EAE CNS tissue sections; assay type: binding, C. jacchus marmoset; conditions: conjugates 1:100, silver enhancement
Experimental: Immunogold labeling was performed on ultra-thin sections of frozen or fixed tissues. Gold conjugates were prepared of (1) three MOG peptides (amino acids [aa] 1-20, aa 21-40, and aa 41-60 of human MOG (SEQ ID NO:3)) with known encephalitogenic activity in marmosets; (2) one MOG peptide that has been shown not to be encephalitogenic in marmosets (aa 101-120); (3) one human myelin basic protein (MBP) peptide (aa 82-101) that is encephalitogenic in marmosets and immunodominant in humans with the DR2 haplotype; and, as a control, (4) a peptide of mouse serum albumin (MSA; aa 560-574). Peptides having human MOG subsequences were synthesized using standard Fmoc chemistry and purified (>95%) by HPLC (Research Genetics Inc., Huntsville, Ala.): MOG 1-20, MOG 21-40, […], MBP 82-101, and MSA 560-574. The gold conjugates were synthesized by using monosulfo-N-hydroxy succinimide-Nanogold labeling reagent (particle diameter, 1.4 nm), according to the manufacturer's instructions (Nanoprobes, Stonybrook, N.Y.), followed by extensive dialysis to remove unreacted peptide. Immunoreactivity was detected on 1-μm epoxy sections of marmoset spinal cord tissue and active MS lesions. For this, sections were etched with sodium ethoxide, equilibrated in PO4-buffered saline containing 0.05% Triton X-100, and blocked with 10% normal rabbit serum. Sections were incubated with peptide-immunogold conjugates (1:100 in buffer) for 2 hours at room temperature. After washing, detection was performed by using silver enhancement (Nanoprobes). Sections were counterstained with toluidine blue. […]
as §1

| Substance | staining of vesiculated myelin networks by gold conjugate [1] | labeling of vesiculated myelin networks by gold conjugate [2] |
| --- | --- | --- |
| MBP (aa 82-101): Nanogold conjugate of human myelin basic protein peptide aa 82-101 (PADPGSRPHLIRLFSRDAPG; also: Nanogold conjugate, attachment not given here) | to a lesser extent | failed to label |
| MSA, aa 560-574: Nanogold conjugate of control peptide of mouse serum albumin aa 560-574 (KPKATAEQLKTVMDD; also: Nanogold conjugate, attachment not given here) | not | failed to label |
| gold-conjugated MOG peptide (aa 21-40): Nanogold conjugate of human MOG peptide aa 21-40 (ELPCRISPGKNATGMEVGWY; also: Nanogold conjugate, attachment not given here) |  | Positive reactivity |
